The IC50 is the concentration that inhibits the measured activity by half. Low values mean inhibition by little substance, high ones a need for much substance.

The results in this text go back to article PMC10342075, “Blunting Neuroinflammation by Targeting the Immunoproteasome with Novel Amide Derivatives” (International Journal of Molecular Sciences, 2023).

For experiment [1], the target named is T1, β5i subunit of 20S immunoproteasome (LMP7) (Homo sapiens, UniProt P28062).
T1 construct: gene PSMB8; human 20S immunoproteasome isolated from human spleen; with 20S immunoproteasome (other subunits)
T1 sequence (P28062 73-276): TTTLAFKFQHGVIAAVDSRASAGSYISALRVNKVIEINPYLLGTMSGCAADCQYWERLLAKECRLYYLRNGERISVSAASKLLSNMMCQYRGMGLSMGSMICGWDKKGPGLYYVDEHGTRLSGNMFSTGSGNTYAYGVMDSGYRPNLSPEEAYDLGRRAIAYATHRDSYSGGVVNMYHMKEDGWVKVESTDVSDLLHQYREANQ
Put plainly: fluorogenic Suc-Leu-Leu-Val-Tyr-AMC hydrolysis (chymotrypsin-like activity) with purified human […] immunoproteasome. The experiment is classed as biochemical.

For experiment [2], the target named is T2, β5c subunit of 20S proteasome (Homo sapiens, UniProt P28074).
T2 construct: gene PSMB5; human 20S proteasome isolated from human erythrocytes; with 20S proteasome (other subunits)
T2 sequence (P28074 60-263): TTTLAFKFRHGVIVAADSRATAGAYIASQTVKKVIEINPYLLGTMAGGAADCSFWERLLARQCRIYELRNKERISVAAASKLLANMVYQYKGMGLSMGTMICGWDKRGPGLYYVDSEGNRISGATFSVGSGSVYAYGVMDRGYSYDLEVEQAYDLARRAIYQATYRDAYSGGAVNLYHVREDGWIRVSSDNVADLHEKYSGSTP
Put plainly: fluorogenic Suc-Leu-Leu-Val-Tyr-AMC hydrolysis (chymotrypsin-like activity) with purified human […] proteasome. The experiment is classed as biochemical.

Molecules are shown by their SMILES.

In the case of `O=C(NCCc1ccccc1)[C@H](CCc1ccccc1)n1ccccc1=O` [KJ3], 7.61 ± 0.76 µM corresponded to half-maximal inhibition in experiment [1] (IC50).

For `O=C(NCc1ccccc1)[C@H](Cc1ccccc1)n1ccccc1=O` [KJ9], the 50% inhibitory concentration (IC50) in experiment [2] was determined as 6.9 ± 0.18 µM; in experiment [1], 16.5 ± 0.35 µM.
